Data reported in ChEMBL document CHEMBL1201862, “PubChem BioAssay data set” (2004).
Counter-ions that a name gives are not always drawn.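 Step 1: Grow cells in 96-well plates. Step 2: Expose to compound for 48 hours at 5 concentrations. Step 3: Interpolate endpoints linearly; if unreached, use highest concentration. Abbreviation: GI50, concentration required for 50% inhibition of growth.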 Calls of active or inactive are those of the source. Rule as the data show it: active = GI50 up to about 1.1 µM and inactive = higher.

How the values were obtained:
Experiment in all cases: NCI tumour cell line growth inhibition, 48 h
HCT-116 = test system: HCT-116
Malme-3M = test system: Malme-3M
M14 = test system: M14
MDA-MB-435 = test system: MDA-MB-435
SK-OV-3 = test system: SK-OV-3
MCF7 = test system: MCF7
CAKI-1 = test system: CAKI-1
SNB-19 = test system: SNB-19
K562 = test system: K562
KM12 = test system: KM12
NCI-H23 = test system: NCI-H23
MDA-N = test system: MDA-N
IGROV-1 = test system: IGROV-1
SN12C = test system: SN12C
PC-3 = test system: PC-3
HL-60 = test system: HL-60
HCT-15 = test system: HCT-15
SF-268 = test system: SF-268
T47D = test system: T47D
HOP-62 = test system: HOP-62

Row | Compound | GI50 (HCT-116) | GI50 (Malme-3M) | GI50 (M14) | GI50 (MDA-MB-435) | GI50 (SK-OV-3) | GI50 (MCF7) | GI50 (CAKI-1) | GI50 (SNB-19) | GI50 (K562) | GI50 (KM12) | GI50 (NCI-H23) | GI50 (MDA-N) | GI50 (IGROV-1) | GI50 (SN12C) | GI50 (PC-3) | GI50 (HL-60) | GI50 (HCT-15) [µM] | GI50 (SF-268) | GI50 (T47D) | GI50 (HOP-62)
1 | C=CCN1C(=O)CC1N(CC=C)S(=O)(=O)c1ccc(C)cc1 (stereo not drawn) | > 100 µM (inactive) | > 100 µM (inactive) | > 100 µM (inactive) | > 100 µM (inactive) | > 100 µM (inactive) | > 100 µM (inactive) | > 100 µM (inactive) | > 100 µM (inactive) | 98.4 µM (inactive) | > 100 µM (inactive) | > 100 µM (inactive) | > 100 µM (inactive) | > 100 µM (inactive) | 61.7 µM (inactive) | > 100 µM (inactive) | > 100 µM (inactive) | > 100 |  |  | 
2 | COc1cc2nc(-c3cccs3)oc(=O)c2cc1OC | 86.5 µM (inactive) | > 100 µM (inactive) | > 100 µM (inactive) | > 100 µM (inactive) | > 100 µM (inactive) | > 100 µM (inactive) | > 100 µM (inactive) | 47.3 µM (inactive) | > 100 µM (inactive) | > 100 µM (inactive) | 97.9 µM (inactive) |  | > 100 µM (inactive) | > 100 µM (inactive) | > 100 µM (inactive) | > 100 µM (inactive) | > 100 | 61.7 µM (inactive) | > 100 µM (inactive) | 17.6 µM (inactive)
3 | C=C1c2nc3ccccc3n2C=C(c2ccccc2)N1c1ccccc1 | 13.5 µM (inactive) | > 100 µM (inactive) | 67.9 µM (inactive) | 40.5 µM (inactive) | > 100 µM (inactive) | 14.6 µM (inactive) | 81.7 µM (inactive) | 40.4 µM (inactive) | 34.5 µM (inactive) | 24.8 µM (inactive) | 33.7 µM (inactive) | 39.8 µM (inactive) | > 100 µM (inactive) | 92.5 µM (inactive) | 34.3 µM (inactive) | 58.7 µM (inactive) | 13.6 |  |  | 
4 | O=S(=O)(Oc1ccc2ccccc2c1-c1c(OS(=O)(=O)C(F)(F)F)ccc2ccccc12)C(F)(F)F | 9.64 µM (inactive) | > 100 µM (inactive) | 91.8 µM (inactive) | 45.5 µM (inactive) | > 100 µM (inactive) | > 100 µM (inactive) | > 100 µM (inactive) | > 100 µM (inactive) | 16.9 µM (inactive) | > 100 µM (inactive) | 75.2 µM (inactive) |  | > 100 µM (inactive) |  | 12.7 µM (inactive) | 11.3 µM (inactive) | 32.4 | > 100 µM (inactive) |  | > 100 µM (inactive)
5 | CCCCCCc1cc2cc(-c3csc(-c4ccc(OC)cc4)n3)c(=O)oc2cc1O | 7.19 µM (inactive) |  | 12.2 µM (inactive) | 4.9 µM (inactive) | 15.2 µM (inactive) | 17.8 µM (inactive) | 6.73 µM (inactive) | 9.95 µM (inactive) | 19.3 µM (inactive) | 24.8 µM (inactive) |  |  | 5.45 µM (inactive) | 10.4 µM (inactive) | 18.9 µM (inactive) | 33.3 µM (inactive) | 17.1 | 4.79 µM (inactive) | 7.82 µM (inactive) | 14.7 µM (inactive)
6 | CC(CN1c2ccccc2Sc2ccccc21)N(C)C (stereo not drawn) [PROMETHAZINE HYDROCHLORIDE] | 15.5 µM (inactive) | 18.9 µM (inactive) | 17.3 µM (inactive) | 16.9 µM (inactive) | 18.3 µM (inactive) | 25.8 µM (inactive) | 18.5 µM (inactive) | 17.4 µM (inactive) | 17.3 µM (inactive) | 20.8 µM (inactive) | 21.8 µM (inactive) |  | 20.1 µM (inactive) | 15.3 µM (inactive) | 15.8 µM (inactive) | 22.7 µM (inactive) | 17.5 | 17.5 µM (inactive) | 21.5 µM (inactive) | 15.2 µM (inactive)
7 | O=C(CCCN1CCC(O)(c2ccc(Cl)cc2)CC1)c1ccc(F)cc1 [HALOPERIDOL] | 15.1 µM (inactive) | 19.6 µM (inactive) | 18.5 µM (inactive) | 17.5 µM (inactive) | 34.9 µM (inactive) | 37.9 µM (inactive) | 10.1 µM (inactive) | > 100 µM (inactive) | > 100 µM (inactive) | 18.6 µM (inactive) | 31 µM (inactive) |  | 57.3 µM (inactive) | 37.7 µM (inactive) | 70 µM (inactive) |  | 16.6 | 48.2 µM (inactive) | 37.5 µM (inactive) | 36.1 µM (inactive)
8 | C/C(=N\NC(N)=S)C(CN(CC(C)C)CC(C)C)C(=O)Nc1ccc(C)cc1C (stereo not drawn) | > 100 µM (inactive) | > 100 µM (inactive) | > 100 µM (inactive) |  | > 100 µM (inactive) |  | > 100 µM (inactive) | > 100 µM (inactive) | > 100 µM (inactive) | > 100 µM (inactive) | > 100 µM (inactive) |  | > 100 µM (inactive) | > 100 µM (inactive) |  | > 100 µM (inactive) | > 100 | > 100 µM (inactive) |  | > 100 µM (inactive)
9 | CC(NC(=O)C(N)CC(=O)O)NC(=O)N1CCOCC1 (stereo not drawn) | > 100 µM (inactive) | > 100 µM (inactive) | > 100 µM (inactive) | > 100 µM (inactive) | > 100 µM (inactive) | > 100 µM (inactive) | > 100 µM (inactive) | > 100 µM (inactive) | > 100 µM (inactive) | > 100 µM (inactive) | > 100 µM (inactive) | > 100 µM (inactive) | > 100 µM (inactive) | > 100 µM (inactive) | > 100 µM (inactive) |  | > 100 | > 100 µM (inactive) |  | > 100 µM (inactive)
10 | Nc1nc(CCc2n[nH]c(N)n2)n[nH]1 | > 100 µM (inactive) | > 100 µM (inactive) | > 100 µM (inactive) |  | > 100 µM (inactive) |  | > 100 µM (inactive) | > 100 µM (inactive) | > 100 µM (inactive) | > 100 µM (inactive) | > 100 µM (inactive) |  | > 100 µM (inactive) | > 100 µM (inactive) |  | > 100 µM (inactive) | > 100 | > 100 µM (inactive) |  | > 100 µM (inactive)
11 | N=C(N)N/N=C\c1c(-c2cccc([N+](=O)[O-])c2)nc2sc(Cl)cn12 |  | 2.42 µM (inactive) | 3.49 µM (inactive) | 2.07 µM (inactive) |  | 2.61 µM (inactive) | 2.33 µM (inactive) | 2.45 µM (inactive) | 0.575 µM (active) | 2.32 µM (inactive) | 2.75 µM (inactive) |  | 1.8 µM (inactive) | 2.6 µM (inactive) | 2.13 µM (inactive) | 2 µM (inactive) | 4.07 | 3.06 µM (inactive) | 1.64 µM (inactive) | 
12 | CC1=C(C(=O)CC(=O)C(=O)Nc2cccc(Cl)c2C)Sc2ccccc2N1 | > 100 µM (inactive) | > 100 µM (inactive) | > 100 µM (inactive) |  | > 100 µM (inactive) |  | > 100 µM (inactive) | > 100 µM (inactive) | > 100 µM (inactive) | > 100 µM (inactive) | > 100 µM (inactive) |  | > 100 µM (inactive) | > 100 µM (inactive) |  | > 100 µM (inactive) | > 100 | > 100 µM (inactive) |  | > 100 µM (inactive)
